Test results published in US20250136574A1, “SELECTIVE AGENTS TARGETING MYCOBACTERIUM TUBERCULOSIS” (priority 2022, published 2025).
Read-outs that look alike come from different tables or passages of the source. Marks after values point to notes of the source that are not given here.

Assays:
[1] = CC50 cytotoxicity, Promega CellTiter-Glo Luminescent Cell Viability Assay; assay type: cell-based, African green monkey; conditions: African green monkey, Vero cells; 72-hour incubation, CellTiter-Glo, n = 3
Protocol: (§1) Cytotoxicity assays were conducted to measure toxicity of compounds at single concentration in Vero TMPRSS2 cells by using quantitation of ATP to indicate metabolically active cells. Vero cells (derived from African Green Monkey kidney epithelial tissue) were grown in Dulbecco's Modified Eagle Medium (DMEM) supplemented with 10% fetal bovine serum (FBS), 10 mM HEPES buffered saline, and 2 mM L-glutamine. 5,000 cells per well were seeded into a 96-well plate containing two-fold titrations of compounds. The concentration of DMSO was maintained at 0.5% for all wells to avoid toxicity. The plates were incubated for 72 hours, at which point they were acclimatized to room temperature for 30 minutes. 25 μL of the substrate/buffer solution from the Promega CellTiter-Glo Luminescent Cell Viability Assay kit was added to each well. The plates were shaken at a low orbital speed for 3 minutes and let rest at room temperature for 10 minutes, after which luminescence was measured using a BioTek Synergy H1 Microplate Reader H1M. The positive control was defined as wells containing cells without compounds.
(§2) Percent viability was input into PRISM GraphPad to calculate CC50 values by plotting as a non-linear regression curve.
(§3) Given the toxicity of an initial hit compound in mammalian cells and the potential concern for toxicity more generally with nitro-containing drugs, the selected compounds were also examined for toxicity in a mammalian cell line using Promega's Cell Titer-Glo assay to assess cellular ATP levels as a read-out of viability. […] A selectivity index (SI) was then calculated for each compound by determining the ratio of the CC50 in Vero cells to the MABA IC50 in Mtb, where the larger the SI, the safer the compound is in eukaryotic cells relative to its effective dose. […] Therefore, not only were the SAR efforts successful in identifying compounds with increased potency against Mtb, but also, the toxicity concerns of the original hit compound were overcome.

[2] = tested on: Vero cells; assay: as above; assay type: cell-based, African green monkey; conditions: for selectivity index (SI): ratio of CC50 in Vero cells to MABA IC50 in Mtb; for CC50: 72-hour incubation, CellTiter-Glo, n = 3
Protocol: as §1, §2, §3

[3] = tested on: wild-type (WT) Mtb Erdman strain; assay: MABA, Mtb Erdman strain; assay type: cell-based; conditions: Mycobacterium tuberculosis
[4] = Human plasma protein binding; conditions: human, plasma
[5] = Plasma stability, human; conditions: n = 1
[6] = Liver microsomal stability, mouse; conditions: mouse liver microsomes, n = 1
[7] = Liver microsomal stability, human; conditions: human liver microsomes, n = 1
[8] = PBS solubility; conditions: highest concentration with no detectable precipitate; phosphate-buffered saline
[9] = Plasma stability, mouse; conditions: n = 1
[10] = tested on: wild-type (WT) Mtb HN878 strain; assay: MABA, Mtb HN878 strain; assay type: cell-based; conditions: Mycobacterium tuberculosis; read-out: IC50 ± S.D. (μM) HN878
[11] = tested on: human plasma protein; assay: Human plasma protein binding; conditions: human plasma protein binding
[12] = microsomes
[13] = in vitro; conditions: human, plasma
[14] = microsomes; remark: listed apart in the source
[15] = read-out: IC50 S.D. (μM) Mtb Erdman strain
[16] = read-out: IC50 ± S.D. (μM) Erdman

CCCCCCC#Cc1cncc(-c2nnc(SCc3ccc([N+](=O)[O-])cc3)n2C)c1 [drawing 131]
CC50 at 72 hour [1]: 27 ± 5.4 µM
selectivity index (SI) [2]: 1.3
IC50 [3, 15]: 22 ± 13 µM

CCCCCCC#Cc1cncc(-c2nnc(SCc3ccc(Cl)c(F)c3)[nH]2)c1
CC50 at 72 hour [1]: > 125 µM
selectivity index (SI) [2]: >23
IC50 [3, 15]: 5.4 ± 0.03 µM

CCCCCCC#Cc1cncc(-c2nnc(SCc3cc([N+](=O)[O-])cc([N+](=O)[O-])c3)n2C)c1 [drawing 140]
fraction unbound [4]: < 0.001
plasma stability t1/2 (min), human [5]: >480; >480 min
liver microsomal stability CLint (μL/min/mg), mouse [6]: 287 µL/min/mg
liver microsomal stability t1/2 (min), mouse [6]: 4.8 min
liver microsomal stability CLint (μL/min/mg), human [7]: 357 µL/min/mg
liver microsomal stability t1/2 (min), human [7]: 3.9 min
PBS solubility [8]: <1.6 µM
plasma stability t1/2 (min), mouse [9]: >480; >480 min

CCCCCCC#Cc1cncc(-c2nnc(SCc3cc([N+](=O)[O-])cc([N+](=O)[O-])c3)n2C2CC2)c1.Cl
plasma stability t1/2 (min), human [5]: >480; >480 min
liver microsomal stability t1/2 (min), mouse [6]: 5.9 min
liver microsomal stability t1/2 (min), human [7]: 3.0 min
PBS solubility [8]: 3.1 µM
plasma stability t1/2 (min), mouse [9]: >480; >480 min

CCCCCCC#Cc1cncc(-c2nnc(SCc3ccc(Cl)cc3)n2C)c1 [drawing 92]
IC50 [3, 16]: 1.5 ± 0.19 µM
IC50 [10]: 0.85 ± 0.043 µM

Cn1c(SCc2ccc(Cl)cc2)nnc1-c1cncc(C#Cc2ccccc2)c1 [drawing 138]
CC50 [2]: > 100 µM
selectivity index (SI) [2]: >46
IC50 [3, 15]: 2.2 ± 0.4 µM

CCCCCCC#Cc1cncc(-c2nnc(SCc3cc([N+](=O)[O-])cc([N+](=O)[O-])c3)n2C)c1 [drawing 133]
CC50 [2]: > 100 µM
selectivity index (SI) [2]: >294
IC50 [3, 15]: 0.34 ± 0.01 µM

CCCCCCC#Cc1cncc(-c2nnc(SCc3ccc(C#N)cc3)n2C)c1 [drawing 130]
CC50 [2]: > 100 µM
selectivity index (SI) [2]: >3.7
IC50 [3, 15]: 27 ± 0.4 µM

CCCCCCC#Cc1cncc(-c2nnc(SCc3cc([N+](=O)[O-])cc([N+](=O)[O-])c3)n2C)c1 [drawing 95]
IC50 [3, 16]: 0.17 ± 0.016 µM
IC50 [10]: 0.061 ± 0.012 µM

CCCCCCC#Cc1cncc(-c2nnc(SCc3ccc(Cl)cc3)n2C)c1 [drawing 129]
CC50 at 72 hour [1]: 50 ± 5.5 µM
selectivity index (SI) [2]: 9.3
IC50 [3, 15]: 5.4 ± 0.5 µM

CCCCCCC#Cc1cncc(-c2nnc(SCc3ccc(Cl)cc3)n2C2CC2)c1 [drawing 136]
CC50 at 72 hour [1]: 25 ± 2.5 µM
selectivity index (SI) [2]: 4.8
IC50 [3, 15]: 5.1 ± 0.7 µM

CC(=O)CC(c1ccccc1)c1c(O)c2ccccc2oc1=O (stereo not drawn) [warfarin]
plasma protein binding [11]: >99.9%

CCCCCCC#Cc1cncc(-c2nnc(SCc3ccc([N+](=O)[O-])cc3)n2C)c1 [drawing 94]
IC50 [3, 16]: 2.9 ± 0.45 µM
IC50 [10]: 1.3 ± 0.15 µM

NNC(=O)c1ccncc1 [INH, isoniazid, reference compound]
IC50 [3, 16]: 0.18 ± 0.014 µM
IC50 [10]: 0.12 ± 0.00051 µM

CCCCCCC#Cc1cncc(-c2nnc(SCc3ccc(C#N)cc3)n2C)c1 [drawing 93]
IC50 [3, 16]: 5.3 ± 1.17 µM
IC50 [10]: 2.3 ± 0.2 µM

COC(=O)[C@H]1[C@H]2C[C@@H]3c4[nH]c5cc(OC)ccc5c4CCN3C[C@H]2C[C@@H](OC(=O)c2cc(OC)c(OC)c(OC)c2)[C@@H]1OC [reserpine, reference compound]
PBS solubility (μM) [8]: 7.8^[d] μM

CCCCCCC#Cc1cncc(-c2nnc(SCc3ccc([N+](=O)[O-])cc3[N+](=O)[O-])n2C)c1
CC50 at 72 hour [1]: 28 ± 1 µM
selectivity index (SI) [2]: 27
IC50 [3, 15]: 1.1 ± 0.1 µM

CCCCCCC#Cc1cncc(-c2nnc(SCc3ccc([N+](=O)[O-])o3)n2C2CC2)c1 [drawing 137]
CC50 at 72 hour [1]: 7.8 ± 0.48 µM
selectivity index (SI) [2]: 165
IC50 [3, 15]: 0.05 ± 0.003 µM

CCCCCCC#Cc1cncc(-c2nnc(SCc3ccc([N+](=O)[O-])o3)n2C2CC2)c1 [drawing 141]
liver microsomal stability CLint (μL/min/mg), mouse [12]: 546 µL/min/mg
fraction unbound [13]: < 0.001
plasma stability t1/2 (min), human [5]: 259 min
liver microsomal stability t1/2 (min), mouse [6]: 2.5 min
liver microsomal stability t1/2 (min), human [7]: 1.9 min
PBS solubility [8]: 3.1 µM
plasma stability t1/2 (min), mouse [9]: 238 min
liver microsomal stability CLint (μL/min/mg), human [14]: 470 µL/min/mg

CCCCCCC#Cc1cncc(-c2nnc(SCc3ccc([N+](=O)[O-])o3)n2C)c1 [drawing 135]
CC50 at 72 hour [1]: 33 ± 2.9 µM
selectivity index (SI) [2]: 314
IC50 [3, 15]: 0.1 ± 0.01 µM
